The subject of assay [1] is advanced solid malignancies carrying an alteration in the PIK3CA gene. Put plainly: Phase I clinical trial, single agent treatment, radiologic response (RECIST 1.0). It is filed as in vivo, human. Conditions: out of 131 patients evaluable for radiologic response, as of Mar. 10, 2014. The source says:
(§1) (hereinafter, “Compound I”). […] As of Mar.

For assay [2], the system named is PIK3CA-mutant or amplified tumor xenograft models. As to the kind of experiment: In vivo antitumor activity in tumor xenograft models. The following applies: xenograft models such as breast, head and neck, and ovarian cancers.
From the text: as §1

Molecules are shown by their SMILES.

Take `Cc1nc(NC(=O)N2CCC[C@H]2C(N)=O)sc1-c1ccnc(C(C)(C)C(F)(F)F)c1` [Compound I, (S)-Pyrrolidine-1,2-dicarboxylic acid 2-amide 1-({4-methyl-5-[2-(2,2,2-trifluoro-1,1-dimethyl-ethyl)-pyridin-4-yl]-thiazol-2-yl}-amide)]: the “patients with partial response to treatment” value in assay [1] (PIK3CA-altered solid tumors) stood at 15 patients. Further, in assay [1], the “patients with stable disease” value is given as 68 patients. In assay [2], the “in vivo antitumor activity” value is “dose-dependent antitumor activity”.

(Values after patent US20190314353A1, “Pharmaceutical Compositions Comprising Alpelisib” (Novartis AG, priority 2014, published 2019).)
